Test results from EPA's ToxRefDB 2.

Assays:
rat [1] = conditions: Subchronic oral toxicity in rodents, other, Feed, dose end: 91 day
rabbit [2] = conditions: Prenatal developmental toxicity study, other, Oral, Gavage/Intubation, dose end: 19 GD
mouse [3] = conditions: Carcinogenicity, other, Oral, Feed, dose end: 18 month, group: systemic
dog [4] = conditions: Chronic toxicity, beagle, Oral, Capsule, dose end: 52 week, group: systemic
rat [5] = conditions: Combined chronic toxicity/carcinogenicity; sprague dawley; Oral; Feed; dose end: 104 week; group: systemic; systemic / clinical chemistry / alanine aminotransferase (alt/sgpt) / alanine aminotransferase (alt/sgpt) + systemic / clinical chemistry / …
dog [6] = conditions: Subchronic oral toxicity in nonrodent, beagle, Capsule, dose end: 26 week, group: systemic, systemic / in life observation / body weight / body weight gain
rat [7] = conditions: Multigenerational reproductive toxicity study, sprague dawley, Oral, Feed, dose end: 2 generation
rabbit [8] = conditions: Prenatal developmental toxicity study; new zealand white; Oral; Gavage/Intubation; dose end: 19 GD; group: maternal; reproductive / reproductive performance / postimplantation loss / postimplantation loss + reproductive / reproductive performance / …
mouse [9] = conditions: Carcinogenicity, swiss albino, Oral, Feed, dose end: 78 week
rat [10] = conditions: Subchronic oral toxicity in rodents, sprague dawley, Gavage/Intubation, dose end: 94 day
dog [11] = conditions: Chronic toxicity, beagle, Oral, Feed, dose end: 104 week
rat [12] = conditions: Prenatal developmental toxicity study, sprague dawley, Oral, Gavage/Intubation, dose end: 19 GD
rat [13] = conditions: Combined chronic toxicity/carcinogenicity, sprague dawley, Oral, Feed, dose end: 104 week
dog [14] = conditions: Combined chronic toxicity/carcinogenicity, beagle, Oral, Feed, dose end: 104 week
dog [15] = conditions: Chronic toxicity; beagle; Oral; Feed; dose end: 52 week; group: systemic; systemic / in life observation / body weight / body weight + systemic / organ weight / spleen / absolute + systemic / organ weight / spleen…
[16] = group: cholinesterase, cholinesterase / cholinesterase / cholinesterase / cholinesterase (che)
[17] = group: systemic, systemic / clinical chemistry / alkaline phosphatase (alp/alk) / alkaline phosphatase (alp/alk) + systemic / in life observation / clinical …
[18] = group: developmental, developmental / developmental malformation / bone / hypoplasia + developmental / developmental malformation / trunk / spina bifida
[19] = group: maternal, systemic / in life observation / body weight / body weight gain
[20] = systemic / pathology microscopic / lung / adenoma + systemic / pathology microscopic / lung / carcinoma + systemic / in life observation / …
[21] = systemic / in life observation / body weight / body weight gain + systemic / in life observation / food consumption / food consumption + …
[22] = group: offspring, systemic / in life observation / body weight / offspring (pup) weight
[23] = group: offspring, systemic / in life observation / body weight / offspring (pup) weight + developmental / offspring survival late / viability index / …
[24] = group: parental, systemic / in life observation / body weight / body weight + systemic / in life observation / food consumption / food consumption + systemic…
[25] = group: cholinesterase, cholinesterase / cholinesterase / cholinesterase / erythrocyte cholinesterase (che) + cholinesterase / cholinesterase / cholinesterase / …
[26] = group: systemic, systemic / in life observation / body weight / body weight + systemic / in life observation / body weight / body weight gain + systemic / in…
[27] = group: cholinesterase, cholinesterase / cholinesterase / cholinesterase / plasma cholinesterase (che)
[28] = group: cholinesterase, cholinesterase / cholinesterase / cholinesterase / plasma cholinesterase (che) + cholinesterase / cholinesterase / cholinesterase / brain …
[29] = group: systemic, systemic / organ weight / liver / relative to body weight + systemic / organ weight / ovary / absolute + systemic / organ weight / ovary / …
[30] = group: systemic, systemic / pathology microscopic / intestine small / hypertrophy + systemic / pathology microscopic / stomach / hypertrophy + systemic / …
[31] = group: developmental, systemic / in life observation / body weight / fetal weight
[32] = group: maternal, systemic / in life observation / mortality / mortality + systemic / pathology microscopic / liver / hepatitis + systemic / pathology …
[33] = group: systemic, systemic / clinical chemistry / alkaline phosphatase (alp/alk) / alkaline phosphatase (alp/alk) + systemic / in life observation / body …
[34] = group: systemic, systemic / pathology microscopic / intestine small / hypertrophy + systemic / in life observation / clinical signs / soft stools + systemic…

With CCOC(=O)NCCOc1ccc(Oc2ccccc2)cc1 [Fenoxycarb] as the compound, how does the LEL (rat [1]; [16]) read?
The LEL was 250 mg/kg/day.

And the LOAEL (rat [1]; [16])?
The LOAEL was over 800 mg/kg/day.

And the NEL (rat [1]; [16])?
The NEL was 80 mg/kg/day.

And the NOAEL (rat [1]; [16])?
Its NOAEL is at least 800 mg/kg/day.

What about the LEL (rat [1]; [17]) of the same compound?
The LEL was 80 mg/kg/day.

What about the LOAEL (rat [1]; [17]) of the same compound?
Its LOAEL is 80 mg/kg/day.

And the NEL (rat [1]; [17])?
The NEL was under 80 mg/kg/day.

What about the NOAEL (rat [1]; [17]) of the same compound?
Its NOAEL is under 80 mg/kg/day.

And the LEL (rabbit [2]; [18])?
The LEL was 300 mg/kg/day.

And the LOAEL (rabbit [2]; [18])?
Its LOAEL is 300 mg/kg/day.

What about the NEL (rabbit [2]; [18]) of the same compound?
Its NEL is 200 mg/kg/day.

And the NOAEL (rabbit [2]; [18])?
The NOAEL was 200 mg/kg/day.

What about the LEL (rabbit [2]; [19]) of the same compound?
The LEL was 200 mg/kg/day.

What about the LOAEL (rabbit [2]; [19]) of the same compound?
Its LOAEL is 200 mg/kg/day.

What about the NEL (rabbit [2]; [19]) of the same compound?
Its NEL is 100 mg/kg/day.

What about the NOAEL (rabbit [2]; [19]) of the same compound?
The NOAEL was 100 mg/kg/day.

What about the LEL (mouse [3]; systemic / pathology gross / spleen / enlarged) of the same compound?
The LEL was 5.75 mg/kg/day.

What about the NEL (mouse [3]; systemic / pathology gross / spleen / enlarged + systemic / pathology microscopic / liver / carcinoma + systemic / pathology microscopic / …) of the same compound?
Its NEL is 1.1 mg/kg/day.

And the LOAEL (mouse [3]; [20])?
The LOAEL was 51.5 mg/kg/day.

And the NOAEL (mouse [3]; [20])?
Its NOAEL is 5.33 mg/kg/day.

And the LEL (dog [4]; systemic / clinical chemistry / phosphorus / phosphorus)?
The LEL was 80 mg/kg/day.

What about the NOAEL (dog [4]; systemic / in life observation / body weight / body weight gain + systemic / clinical chemistry / phosphorus / phosphorus + systemic / organ…) of the same compound?
Its NOAEL is 80 mg/kg/day.

And the LOAEL (dog [4]; [21])?
The LOAEL was 260 mg/kg/day.

What about the NEL (dog [4]; [21]) of the same compound?
The NEL was 25 mg/kg/day.

What about the LEL (rat [5]) of the same compound?
Its LEL is 24.7 mg/kg/day.

What about the LOAEL (rat [5]) of the same compound?
Its LOAEL is 24.7 mg/kg/day.

And the NEL (rat [5])?
The NEL was 8.1 mg/kg/day.

And the NOAEL (rat [5])?
The NOAEL was 8.1 mg/kg/day.

What about the LEL (dog [6]) of the same compound?
Its LEL is 500 mg/kg/day.

And the LOAEL (dog [6])?
Its LOAEL is 500 mg/kg/day.

What about the NEL (dog [6]) of the same compound?
The NEL was 150 mg/kg/day.

What about the NOAEL (dog [6]) of the same compound?
The NOAEL was 150 mg/kg/day.

Which results are given for O=P(O)(O)CCCl [Ethephon]?
LEL (rat [7]; [22]): 198 mg/kg/day; LOAEL (rat [7]; [22]): 198 mg/kg/day; NEL (rat [7]; [23]): 19.8 mg/kg/day; NOAEL (rat [7]; [23]): 19.8 mg/kg/day; LEL (rat [7]; [24]): 245 mg/kg/day; LOAEL (rat [7]; [24]): 245 mg/kg/day; NEL (rat [7]; [24]): 23.7 mg/kg/day; NOAEL (rat [7]; [24]): 23.7 mg/kg/day; LEL (rabbit [8]): 250 mg/kg/day; LOAEL (rabbit [8]): 250 mg/kg/day; NEL (rabbit [8]): 125 mg/kg/day; NOAEL (rabbit [8]): 125 mg/kg/day; LEL (mouse [9]; [25]): 156 mg/kg/day; LOAEL (mouse [9]; [25]): > 7750 mg/kg/day; NEL (mouse [9]; [25]): 15.5 mg/kg/day; NOAEL (mouse [9]; [25]): ≥ 7750 mg/kg/day; LOAEL (mouse [9]; group: systemic, systemic / in life observation / body weight / body weight + systemic / in life observation / body weight / body weight gain): 1630 mg/kg/day; NEL (mouse [9]; [26]): 156 mg/kg/day; NOAEL (mouse [9]; [26]): 156 mg/kg/day; LEL (mouse [9]; group: systemic, systemic / in life observation / body weight / body weight + systemic / in life observation / body weight / body weight gain + systemic / …): 1630 mg/kg/day; LEL (rat [10]; [27]): 50 mg/kg/day; NEL (rat [10]; [27]): < 50 mg/kg/day; LOAEL (rat [10]; [28]): > 200 mg/kg/day; NOAEL (rat [10]; [28]): ≥ 200 mg/kg/day; LEL (rat [10]; [29]): 200 mg/kg/day; LOAEL (rat [10]; [29]): 200 mg/kg/day; NEL (rat [10]; [29]): 100 mg/kg/day; NOAEL (rat [10]; [29]): 100 mg/kg/day; LOAEL (dog [11]; group: cholinesterase, cholinesterase / cholinesterase / cholinesterase / erythrocyte cholinesterase (che)): 7.5 mg/kg/day; LEL (dog [11]; [27]): 0.75 mg/kg/day; NEL (dog [11]; [27]): < 0.75 mg/kg/day; NOAEL (dog [11]; group: cholinesterase, cholinesterase / cholinesterase / cholinesterase / plasma cholinesterase (che) + cholinesterase / cholinesterase / cholinesterase / …): 0.75 mg/kg/day; LEL (dog [11]; group: systemic, systemic / pathology microscopic / intestine small / hypertrophy + systemic / pathology microscopic / stomach / hypertrophy): 7.5 mg/kg/day; LOAEL (dog [11]; [30]): > 75 mg/kg/day; NEL (dog [11]; [30]): 0.75 mg/kg/day; NOAEL (dog [11]; [30]): ≥ 75 mg/kg/day; LEL (rat [12]; [31]): 1800 mg/kg/day; LOAEL (rat [12]; [31]): 1800 mg/kg/day; NEL (rat [12]; [31]): 600 mg/kg/day; NOAEL (rat [12]; [31]): 600 mg/kg/day; LEL (rat [12]; [32]): 1800 mg/kg/day; LOAEL (rat [12]; [32]): 1800 mg/kg/day; NEL (rat [12]; [32]): 600 mg/kg/day; NOAEL (rat [12]; [32]): 600 mg/kg/day; LEL (rat [13]; [25]): 150 mg/kg/day; LOAEL (rat [13]; [25]): 150 mg/kg/day; NEL (rat [13]; [25]): 15 mg/kg/day; NOAEL (rat [13]; [25]): 15 mg/kg/day; LEL (rat [13]; [33]): 15 mg/kg/day; LOAEL (rat [13]; [33]): > 150 mg/kg/day; NEL (rat [13]; [33]): 1.5 mg/kg/day; NOAEL (rat [13]; [33]): ≥ 150 mg/kg/day; LEL (dog [14]; [27]): 0.75 mg/kg/day; LOAEL (dog [14]; [27]): 0.75 mg/kg/day; NEL (dog [14]; [27]): < 0.75 mg/kg/day; NOAEL (dog [14]; [27]): < 0.75 mg/kg/day; LEL (dog [14]; [34]): 7.5 mg/kg/day; LOAEL (dog [14]; [34]): > 37.5 mg/kg/day; NEL (dog [14]; [34]): 0.75 mg/kg/day; NOAEL (dog [14]; [34]): ≥ 37.5 mg/kg/day; LEL (dog [15]): 52.1 mg/kg/day; LOAEL (dog [15]): 52.1 mg/kg/day; NEL (dog [15]): 28.5 mg/kg/day; NOAEL (dog [15]): 28.5 mg/kg/day
